Data: PubChem BioAssay AID1347408 (Pan Lab, Icahn School of Medicine at Mount Sinai, 2020)
Inconclusive results are not listed. Calls of active or inactive are those of the source.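 How the source made its calls: active means IC50 half-inhibiting concentration at or below 10 micromolar; inconclusive means IC50 above 10 and up to 20 micromolar; inactive means IC50 above 20 micromolar.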

What follows are molecules tested against E3 ubiquitin-protein ligase RBX1 (Homo sapiens) + Cullin-1 (Homo sapiens) (UniProt P62877+Q13616) (assay: ROC1-CUL1 CTD ubiquitination inhibitors, dose response, biochemical, FRET, E1/Cdc34 cascade (AID 1347408)). Conditions: in vitro di-Ub FRET.
Chain of E3 ubiquitin-protein ligase RBX1 (Homo sapiens) + Cullin-1 (Homo sapiens) (P62877 whole entry, looked up): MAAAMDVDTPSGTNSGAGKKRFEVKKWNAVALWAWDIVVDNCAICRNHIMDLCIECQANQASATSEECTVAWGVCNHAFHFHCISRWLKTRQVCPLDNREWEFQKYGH
Chain of E3 ubiquitin-protein ligase RBX1 (Homo sapiens) + Cullin-1 (Homo sapiens) (Q13616 whole entry, looked up): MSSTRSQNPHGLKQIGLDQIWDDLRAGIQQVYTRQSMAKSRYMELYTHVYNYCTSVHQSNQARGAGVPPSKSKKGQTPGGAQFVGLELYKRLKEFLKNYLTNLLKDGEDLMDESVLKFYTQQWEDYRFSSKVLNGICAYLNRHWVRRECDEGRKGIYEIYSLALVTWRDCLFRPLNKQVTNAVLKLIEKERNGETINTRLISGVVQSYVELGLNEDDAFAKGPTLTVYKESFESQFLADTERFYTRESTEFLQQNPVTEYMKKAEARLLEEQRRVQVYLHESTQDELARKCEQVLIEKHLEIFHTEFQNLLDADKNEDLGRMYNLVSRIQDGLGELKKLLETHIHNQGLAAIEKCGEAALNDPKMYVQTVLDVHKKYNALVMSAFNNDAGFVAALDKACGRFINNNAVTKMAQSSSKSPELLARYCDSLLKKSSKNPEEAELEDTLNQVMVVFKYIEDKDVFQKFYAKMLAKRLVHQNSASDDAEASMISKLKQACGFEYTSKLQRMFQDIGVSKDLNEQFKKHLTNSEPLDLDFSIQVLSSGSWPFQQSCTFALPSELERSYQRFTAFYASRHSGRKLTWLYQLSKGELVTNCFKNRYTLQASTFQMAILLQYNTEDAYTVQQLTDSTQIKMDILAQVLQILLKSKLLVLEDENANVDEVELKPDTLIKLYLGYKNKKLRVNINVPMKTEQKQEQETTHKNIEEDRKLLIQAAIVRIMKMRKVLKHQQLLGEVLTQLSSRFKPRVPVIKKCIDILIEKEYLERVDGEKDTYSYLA
With `CCNc1ccc(Br)cc(C(=O)/C=C/c2c(Cl)cccc2Cl)c1=O` the IC50 was “inactive”.
For `Cc1ccc(NC(=O)c2ccc(Cl)cc2Cl)c(S(=O)(=O)O)c1`, the IC50 was “inactive”.
With `CN(CCC(=O)C=Cc1ccc(Cl)c(Cl)c1)CCc1ccc2c(c1)OCO2` the IC50 was “inactive”.
With `CNc1ccccc(C(=O)C=Cc2ccc3c(c2)OCO3)c1=O` the IC50 was “inactive”.
Molecule `CCOc1ccc2nc3cc(NC(=O)c4ccco4)ccc3c(N)c2c1` has an IC50 of 4.8 µM.
For `NCCCSc1nc2c(c(=O)n1Cc1ccccc1)C1(CCCCC1)Cc1ccccc1-2`, the IC50 was “inactive”.
In the case of `Cc1ccc2c(c1)-c1c(c(C(=O)N3CCN(c4cc(C)ccc4C)CC3)nn1C)CS2`, the IC50 is reported as “inactive”.
In the case of `CCOc1cccc2c1N[C@@H](c1ccc(C(=O)O)cc1)[C@H]1CC=C[C@@H]21`, the IC50 is reported as “inactive”.
In the case of `CCCCCCCCCOc1ccc(C#CC(=O)O)cc1`, the IC50 is reported as 4.2 µM.
`COc1ccc(C=C2C(=O)N(Cc3ccco3)C(=O)N(C(C)C)C2=O)cc1` was tested, and the IC50 was “inactive”.
`Cc1ccc([C@@H]2Nc3c(ccc(C(=O)O)c3C)[C@@H]3C=CC[C@@H]32)cc1` was tested, and the IC50 was “inactive”.
